Experimental data published in patent publication US10196365B2, “Quinazoline derivative, preparation method therefor, and pharmaceutical composition and application thereof” (ARROMAX PHARMATECH CO., LTD., priority 2014, dated 2019).
Marks after values point to notes of the source that are not given here.

Experiments:
Her-2 enzyme = Her-2 enzyme (Homo sapiens (Human), UniProt P04626); experiment: HTRF kinEASE TK in vitro kinase assay, Her-2; type: biochemical; conditions: 30 min enzyme reaction, read-out: IC50 against Her-2
Her-2 enzyme, sequence (P04626 23-1255): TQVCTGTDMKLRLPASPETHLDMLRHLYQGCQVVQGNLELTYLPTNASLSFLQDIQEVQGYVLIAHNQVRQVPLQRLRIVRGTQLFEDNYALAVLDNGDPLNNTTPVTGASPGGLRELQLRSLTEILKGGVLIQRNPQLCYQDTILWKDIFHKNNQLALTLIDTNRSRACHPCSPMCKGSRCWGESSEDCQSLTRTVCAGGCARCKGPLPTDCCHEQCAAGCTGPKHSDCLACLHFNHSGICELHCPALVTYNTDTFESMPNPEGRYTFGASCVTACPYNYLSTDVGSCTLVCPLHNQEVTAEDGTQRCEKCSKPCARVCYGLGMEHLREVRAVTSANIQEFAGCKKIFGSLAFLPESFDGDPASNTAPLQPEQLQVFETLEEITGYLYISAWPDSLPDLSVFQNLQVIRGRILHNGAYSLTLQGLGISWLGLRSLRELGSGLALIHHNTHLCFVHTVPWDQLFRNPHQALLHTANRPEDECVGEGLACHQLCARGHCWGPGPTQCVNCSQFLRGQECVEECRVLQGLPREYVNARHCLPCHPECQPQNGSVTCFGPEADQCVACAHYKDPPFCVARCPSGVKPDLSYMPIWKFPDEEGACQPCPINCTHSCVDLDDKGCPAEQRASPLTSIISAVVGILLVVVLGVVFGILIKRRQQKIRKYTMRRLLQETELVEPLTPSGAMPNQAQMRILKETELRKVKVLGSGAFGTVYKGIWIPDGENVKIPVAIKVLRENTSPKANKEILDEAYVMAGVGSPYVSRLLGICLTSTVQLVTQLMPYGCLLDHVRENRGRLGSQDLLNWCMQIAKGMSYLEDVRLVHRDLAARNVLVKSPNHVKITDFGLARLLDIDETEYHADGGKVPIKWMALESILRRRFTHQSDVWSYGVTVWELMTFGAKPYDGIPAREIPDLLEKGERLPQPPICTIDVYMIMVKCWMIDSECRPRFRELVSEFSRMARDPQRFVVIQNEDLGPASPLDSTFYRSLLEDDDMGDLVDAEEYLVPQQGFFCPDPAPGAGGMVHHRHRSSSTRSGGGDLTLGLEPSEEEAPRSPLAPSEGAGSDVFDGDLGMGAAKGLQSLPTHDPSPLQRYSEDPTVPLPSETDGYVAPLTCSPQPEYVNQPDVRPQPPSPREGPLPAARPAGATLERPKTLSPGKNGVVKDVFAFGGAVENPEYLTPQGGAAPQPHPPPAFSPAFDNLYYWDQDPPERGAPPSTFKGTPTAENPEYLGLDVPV

[1] = tested on: A431 (human epithelial carcinoma cell lines); experiment: Growth inhibition test in tumor cells (CCK8), A431; type: cell-based; conditions: A-431, 72 h
[2] = tested on: NCI H1975 (human non-small cell lung cancer cell lines); experiment: Growth inhibition test in tumor cells (CCK8), NCI-H1975; type: cell-based; conditions: 72 h
[3] = tested on: A549 (human lung cancer cell lines); experiment: Growth inhibition test in tumor cells (CCK8), A549; type: cell-based; conditions: 72 h
[4] = tested on: MDA-MB-453 (human breast cancer cell lines); experiment: Growth inhibition test in tumor cells (CCK8), MDA-MB-453; type: cell-based; conditions: MDA-MB-453 cells, 72 h
Protocol: Growth Inhibition Tests of a Series of Compounds in Different Tumor Cells
i. Cell lines: A431 (human epithelial carcinoma cell lines), A549 (human lung cancer cell lines), NCI H1975 (human non-small cell lung cancer cell lines (HCC), HCC 827 (human non-small cell lung cancer cell line), MDA-MB-453 (human breast cancer cell lines)
MDA-MB-453 cell line: 90% L15+10% FBS; trypsin (a 0.25% (W/V) solution was prepared with […], 0.53 mM EDTA was added);
i) Logarithmic growth phase cells were collected and counted, the cells were suspended again with complete medium,
ii) The cell concentration was adjusted to an appropriate concentration, inoculated to 96 holes, each of which with 100 μL cells suspension.
iii) The cells were incubated in a 37° C., 100% relative humidity and 5% CO2 incubator, for 24 h.
i) Logarithmic growth phase cells were collected and counted, the cells were suspended again with complete medium, the cell concentration was adjusted to an appropriate concentration (determined according to the results of cell density optimization test), inoculated to 96 plates, each of which with […] cells suspension. The cells were incubated in a 37° C., 100% relative humidity and 5% CO2 incubator for 24 h.
ii) The test compounds were diluted to the corresponding concentration stated by culture medium, and the cells were inoculated as 25 μL/hole. The final concentration of the compound was from 10 μM to 0 μM, with a gradient of 4 times, and 10 concentration points totally.
iii) The cells were incubated in a 37° C., 100% relative humidity, 5% CO2 incubator for 72 h.
iv) Absorbing the culture medium, the complete medium containing 10% CCK-8 was added and incubated in the incubator of 37° C. for 2-4 h.
v) After a slight shake, the absorbance at 450 nm was measured by SpectraMax M5 Microplate Reader, taking the absorbance at 650 nm as a reference, the inhibition rate was calculated.
The IC50 curve fitting was performed by using the software Graphpad Prism 5 and the calculation formula log (inhibitor) vs. response to calculate the IC50 value.

[5] = tested on: HCC 827 (human non-small cell lung cancer cell line); experiment: Growth inhibition test in tumor cells (CCK8), HCC827; type: cell-based; conditions: HCC 827 cells, 72 h
[6] = tested on: NCI-H1975 nude mice transplanted tumor; experiment: In vivo pharmacodynamics evaluation, NCI-H1975 nude mice transplanted tumor; set-up: species or system BALB/c nude mice; conditions: 20 mg/kg, qd, gavage, 14 days
Protocol: BALB/c nude mice, female, 6 to 7 weeks of age, weight 20 g±2 g, purchased from Shanghai silaike experimental animal Co. Ltd., SPF environment.
The logarithmic growth phase NCI-H1975 cells cultured in vitro were digested with trypsin, washed with PBS for three times, the cell survival rate was detected by trypan blue exclusion to be >90%, the cell concentration was adjusted to 1×10^7/mL with PBS, which was implanted subcutaneously in back forelimb of the nude mice with 0.2 mL/pcs under aseptic condition. After tumor formation, the tumor were cultured for two passages in vivo, the tumor were stripped out to sterile culture plate when growing to the volume of 300 to 500 mm^3, a small amount of PBS was added, the tumor tissue with vigorous growth were cut into about 1.5 mm^3 tumor blocks, inoculated in right armpit of the nude mice. The diameter of tumor was measured with vernier caliper, when the tumor grew to 100 to 200 mm^3, then the animal were randomly grouping, […], gavage administration, once a day or every other day, continuously administrated for 14 days (d14) and observed for 7 days (d22), the negative control group was administrated with the same amount of solvent (saline solution of 1% DMSO), during the period of administration and recovery, the body weight and tumor size of the nude mice were measured weekly 2 to 3 times. The tumor volume and relative tumor volume were calculated according to the measured data, and the calculation formula of the tumor volume (TV) was TV=1/2×a×b^2, of which a and b represent the tumor length and diameter respectively. The relative tumor volume (RTV) was calculated according to the measured results, and the calculation formula was: RTV=Vt/V0, wherein V0 represents the tumor volume at the beginning of the experiment, Vt represents the volume of the tumor each measured.

Compound	IC50 (Her-2 enzyme) [nM]	IC50 [1] [nM]	IC50 [3] [nM]	IC50 [4] [nM]	IC50 [5] [nM]	IC50 [2] [nM]	RTV d22 [6]	T/C (%) d22 [6] [%]	Inhibition rate (%) d22 ([6]; listed as Positive control)
COC[C@@H](C)Oc1cc2ncnc(Nc3ccc(F)c(Cl)c3)c2cc1NC(=O)/C=C/CN(C)C [Embodiment 2, (R,E)-N-(4-(3-chloro-4-fluorophenylamino)-7-(2-methoxy-1-methylethoxy)quinazolin-6-yl)-4-(dimethylamino)but-2-enamide]	148	43	7560	–	–	49.9	–	–	–
CCOCCOc1cc2ncnc(Nc3ccc(F)c(Cl)c3)c2cc1NC(=O)/C=C/C(=O)OC [Embodiment 37, methyl (E)-4-(4-((3-chloro-4-fluorophenylamino)-7-(2-ethoxyethoxy)quinazolin-6-yl)amino)-4-oxobut-2-enoate]	–	207	–	21.6	0.987	35.2	–	–	–
CCOCCOc1cc2ncnc(Nc3ccc(F)c(Cl)c3)c2cc1NC(=O)/C=C/Cl [Embodiment 31, (E)-N-(4-(3-chloro-4-fluorophenylamino)-7-(2-ethoxyethoxy)quinazolin-6-yl)-3-chloroacrylamide]	–	–	–	–	–	7.43	–	–	–
C=CC(=O)Nc1cc2c(Nc3ccc(F)c(Cl)c3)ncnc2cc1OCCOCC [Embodiment 22, N-(4-(3-chloro-4-fluorophenylamino)-7-(2-ethoxyethoxy)quinazolin-6-yl)acrylamide]	–	6.01	–	5.67	0.153	51.8	–	–	–
C#CC(=O)Nc1cc2c(Nc3ccc(F)c(Cl)c3)ncnc2cc1OCCOCC [Embodiment 25, N-(4-(3-chloro-4-fluorophenylamino)-7-(2-ethoxyethoxy)quinazolin-6-yl)propiolamide]	–	11.4	–	3.43	1.47	49.3	–	–	–
CCOCCOc1cc2ncnc(Nc3ccc(OCCOC)c(Cl)c3)c2cc1NC(=O)/C=C/CN(C)C [Embodiment 15, (E)-N-(4-(3-chloro-4-(2-methoxyethoxy)phenylamino)-7-(2-ethoxyethoxy)quinazolin-6-yl)-4-(dimethylamino)but-2-enamide]	–	20.1	–	1.66	3.43	7.3	–	–	–
CCOCCOc1cc2ncnc(Nc3ccc(NCCS(C)(=O)=O)c(Cl)c3)c2cc1NC(=O)/C=C/CN(C)C [Embodiment 20, (E)-N-(4-(3-chloro-4-((2-(methylsulfonyl)ethyl)amino)phenylamino)-7-(2-ethoxyethoxy)quinazolin-6-yl)-4-(dimethylamino)but-2-enamide]	–	6.49	–	12.7	0.538	65.6	–	–	–
CCOCCOc1cc2ncnc(Nc3ccc(F)c(Cl)c3)c2cc1NC(=O)/C=C\Cl [Embodiment 32, (Z)—N-(4-(3-chloro-4-fluorophenylamino)-7-(2-ethoxyethoxy)quinazolin-6-yl)-3-chloroacrylamide]	–	–	4000	–	–	1.6	–	–	–
CCOCCOc1ccc(Nc2ncnc3cc(OCCOCC)c(NC(=O)/C=C/CN(C)C)cc23)cc1Cl [Embodiment 17, (E)-N-(4-(3-chloro-4-(2-ethoxyethoxy)phenylamino)-7-(2-ethoxyethoxy)quinazolin-6-yl)-4-(dimethylamino)but-2-enamide]	–	13.7	–	2.53	0.343	6.17	–	–	–

Now from value to compound, other results behind:

IC50 (Her-2 enzyme) [nM]	IC50 [1] [nM]	IC50 [3] [nM]	IC50 [4] [nM]	IC50 [5] [nM]	Compound	IC50 [2] [nM]	RTV d22 [6]	T/C (%) d22 [6] [%]	Inhibition rate (%) d22 ([6]; listed as Positive control)
262	79.5	2930	–	–	CCOCCOc1cc2ncnc(Nc3ccc(OCc4cccc(F)c4)c(Cl)c3)c2cc1NC(=O)/C=C/CN(C)C [Embodiment 11, (E)-N-(4-(4-(3-fluorobenzyloxy)3-chlorophenylamino)-7-(2-ethoxyethoxy)quinazolin-6-yl)-4-(dimethylamino)but-2-enamide]	49.7	–	–	–
–	64.1	–	2.56	2.9	CCOCCOc1cc2ncnc(Nc3ccc(OCC(F)(F)F)c(Cl)c3)c2cc1NC(=O)/C=C/CN(C)C [Embodiment 13, (E)-N-(4-(3-chloro-4-(2,2,2-trifluoroethoxy)phenylamino)-7-(2-ethoxyethoxy)quinazolin-6-yl)-4-(dimethylamino)but-2-enamide]	107	–	–	–
–	297	–	4	4.87	CCOCCOc1cc2ncnc(Nc3ccc(F)c(Cl)c3)c2cc1NC(=O)/C=C/Br [Embodiment 30, (E)-N-(4-(3-chloro-4-fluorophenylamino)-7-(2-ethoxyethoxy)quinazolin-6-yl)-3-bromoacrylamide]	8.22	–	–	–
–	94.8	–	0.68	5.56	CCOCCOc1cc2ncnc(Nc3ccc(F)c(Cl)c3)c2cc1NC(=O)/C=C\C#N [Embodiment 38, (Z)—N-(4-(3-chloro-4-fluorophenylamino)-7-(2-ethoxyethoxy)quinazolin-6-yl)-3-cyanoacrylamide]	18.4	–	–	–
–	148	–	18.3	0.153	CCOCCOc1cc2ncnc(Nc3ccc(F)c(Cl)c3)c2cc1NC(=O)/C=C/C(F)(F)F [Embodiment 36, (E)-N-(4-(3-chloro-4-fluorophenylamino)-7-(2-ethoxyethoxy)quinazolin-6-yl)-4,4,4-trifluorobut-2-enamide]	27.6	–	–	–
10.9	–	3530	–	–	CCOCCOc1cc2ncnc(Nc3ccc(F)c(Cl)c3)c2cc1NC(=O)/C=C/CN(CC)CC [Embodiment 33, (E)-N-(4-(3-chloro-4-fluorophenylamino)-7-(2-ethoxyethoxy)quinazolin-6-yl)-4-(diethylamino)but-2-enamide]	–	–	–	–
–	–	6780	–	–	CN(C)CC=CC(=O)Nc1cc2c(Nc3ccc(F)c(Cl)c3)ncnc2cc1O[C@H]1CCOC1 [Afatinib, N-[4-[(3-chloro-4-fluorophenyl)amino]-7-[[(3S)-tetrahydro-3-furyl]oxy]-6-quinazolinyl)-4-(dimethylamino)-but-2-enamide, reference compound]	–	1.67 ± 0.20	22.44	67.6** %
–	572	–	15.1	6.4	C=C(Br)C(=O)Nc1cc2c(Nc3ccc(F)c(Cl)c3)ncnc2cc1OCCOCC [Embodiment 28, N-(4-(3-chloro-4-fluorophenylamino)-7-(2-ethoxyethoxy)quinazolin-6-yl)2-bromoacrylamide]	39.4	–	–	–
–	54.5	–	58.2	0.538	C=C(F)C(=O)Nc1cc2c(Nc3ccc(F)c(Cl)c3)ncnc2cc1OCCOCC [Embodiment 26, N-(4-(3-chloro-4-fluorophenylamino)-7-(2-ethoxyethoxy)quinazolin-6-yl)-2-fluoroacrylamide]	72.5	–	–	–
–	3.38	–	130	3.95	C=CS(=O)(=O)Nc1cc2c(Nc3ccc(F)c(Cl)c3)ncnc2cc1OCCOCC [Embodiment 24, N-(4-(3-chloro-4-fluorophenylamino)-7-(2-ethoxyethoxy)quinazolin-6-yl)ethenesulfonamide]	13.7	–	–	–
–	369	–	3.72	33.2	C=C(Cl)C(=O)Nc1cc2c(Nc3ccc(F)c(Cl)c3)ncnc2cc1OCCOCC [Embodiment 27, N-(4-(3-chloro-4-fluorophenylamino)-7-(2-ethoxyethoxy)quinazolin-6-yl)2-chloroacrylamide]	37.1	–	–	–
